Experimental data from ChEMBL document CHEMBL1201862, “PubChem BioAssay data set” (2004).
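Method: 48-hour compound exposure of cells in 96-well plates, five concentrations, linear interpolation of endpoints. GI50 is the concentration that inhibits growth by half.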 Activity calls are given as the source filed them. No stated cut-off is given here; in the data, active = GI50 up to about 1.1 µM and inactive = higher.

How the values were obtained:
Assay in all cases: inhibition of tumour cell growth, NCI panel, 48 h
[1] = system: 786-0
[2] = system: A498
[3] = system: A549
[4] = system: ACHN
[5] = system: BT-549
[6] = system: CAKI-1
[7] = system: COLO 205
[8] = system: DU-145
[9] = system: EKVX
[10] = system: HCT-116
[11] = system: HCT-15
[12] = system: HOP-62
[13] = system: HOP-92
[14] = system: HT-29
[15] = system: Hs-578T
[16] = system: IGROV-1
[17] = system: K562
[18] = system: KM12
[19] = system: LOX IMVI
[20] = system: M14
[21] = system: MCF7
[22] = system: MDA-MB-435
[23] = system: MDA-N
[24] = system: MOLT-4
[25] = system: Malme-3M
[26] = system: NCI-H226
[27] = system: NCI-H23
[28] = system: NCI-H522
[29] = system: NCI/ADR-RES
[30] = system: OVCAR-3
[31] = system: OVCAR-4
[32] = system: OVCAR-5
[33] = system: OVCAR-8
[34] = system: RPMI-8226
[35] = system: RXF 393
[36] = system: SF-268
[37] = system: SF-295
[38] = system: SF-539
[39] = system: SK-MEL-28
[40] = system: SK-MEL-5
[41] = system: SK-OV-3
[42] = system: SN12C
[43] = system: SNB-19
[44] = system: SNB-75
[45] = system: SR
[46] = system: SW-620
[47] = system: T47D
[48] = system: UACC-62
[49] = system: UO-31
[50] = system: CCRF-CEM
[51] = system: HCC 2998
[52] = system: HL-60
[53] = system: MDA-MB-231
[54] = system: NCI-H460
[55] = system: PC-3
[56] = system: SK-MEL-2
[57] = system: TK-10
[58] = system: U-251
[59] = system: UACC-257

Compound: CSc1nc(C)cc(Nc2ccc(O)c(CN3CCCCC3)c2)n1
- GI50 [1]: 23.1 µM (inactive)
- GI50 [2]: 23.1 µM (inactive)
- GI50 [3]: > 100 µM (inactive)
- GI50 [4]: 83 µM (inactive)
- GI50 [5]: > 100 µM (inactive)
- GI50 [6]: > 100 µM (inactive)
- GI50 [7]: 29 µM (inactive)
- GI50 [8]: 64.3 µM (inactive)
- GI50 [9]: 27.5 µM (inactive)
- GI50 [10]: 27.8 µM (inactive)
- GI50 [11]: 86.3 µM
- GI50 [12]: > 100 µM (inactive)
- GI50 [13]: 72.4 µM (inactive)
- GI50 [14]: 20.4 µM (inactive)
- GI50 [15]: > 100 µM (inactive)
- GI50 [16]: 60.5 µM (inactive)
- GI50 [17]: 30.6 µM (inactive)
- GI50 [18]: > 100 µM (inactive)
- GI50 [19]: 33 µM (inactive)
- GI50 [20]: 16.3 µM (inactive)
- GI50 [21]: 67.6 µM (inactive)
- GI50 [22]: 57.5 µM (inactive)
- GI50 [23]: 28 µM (inactive)
- GI50 [24]: 57.7 µM (inactive)
- GI50 [25]: 48.6 µM (inactive)
- GI50 [26]: 32.4 µM (inactive)
- GI50 [27]: 77.4 µM (inactive)
- GI50 [28]: 72.1 µM (inactive)
- GI50 [29]: > 100 µM (inactive)
- GI50 [30]: > 100 µM (inactive)
- GI50 [31]: > 100 µM (inactive)
- GI50 [32]: 28.6 µM (inactive)
- GI50 [33]: > 100 µM (inactive)
- GI50 [34]: 23.3 µM (inactive)
- GI50 [35]: 67.6 µM (inactive)
- GI50 [36]: > 100 µM (inactive)
- GI50 [37]: 37.9 µM (inactive)
- GI50 [38]: 43.3 µM (inactive)
- GI50 [39]: 28.8 µM (inactive)
- GI50 [40]: 25.3 µM (inactive)
- GI50 [41]: > 100 µM (inactive)
- GI50 [42]: 56.6 µM (inactive)
- GI50 [43]: > 100 µM (inactive)
- GI50 [44]: > 100 µM (inactive)
- GI50 [45]: 32.1 µM (inactive)
- GI50 [46]: 71.9 µM (inactive)
- GI50 [47]: 68.1 µM (inactive)
- GI50 [48]: 60.8 µM (inactive)
- GI50 [49]: 48.1 µM (inactive)

Compound: CC1=CC(=O)/C(=C/NC(N)=S)C(=O)O1
- GI50 [1]: > 100 µM (inactive)
- GI50 [3]: > 100 µM (inactive)
- GI50 [4]: > 100 µM (inactive)
- GI50 [5]: > 100 µM (inactive)
- GI50 [6]: > 100 µM (inactive)
- GI50 [50]: 28.2 µM (inactive)
- GI50 [7]: > 100 µM (inactive)
- GI50 [8]: > 100 µM (inactive)
- GI50 [9]: > 100 µM (inactive)
- GI50 [51]: > 100 µM (inactive)
- GI50 [10]: > 100 µM (inactive)
- GI50 [11]: 98.4 µM
- GI50 [52]: 1.72 µM (inactive)
- GI50 [12]: 97.5 µM (inactive)
- GI50 [13]: 15.3 µM (inactive)
- GI50 [15]: > 100 µM (inactive)
- GI50 [16]: > 100 µM (inactive)
- GI50 [18]: > 100 µM (inactive)
- GI50 [20]: > 100 µM (inactive)
- GI50 [21]: > 100 µM (inactive)
- GI50 [53]: > 100 µM (inactive)
- GI50 [22]: > 100 µM (inactive)
- GI50 [23]: > 100 µM (inactive)
- GI50 [24]: 53.7 µM (inactive)
- GI50 [26]: > 100 µM (inactive)
- GI50 [27]: > 100 µM (inactive)
- GI50 [54]: > 100 µM (inactive)
- GI50 [28]: > 100 µM (inactive)
- GI50 [29]: > 100 µM (inactive)
- GI50 [30]: > 100 µM (inactive)
- GI50 [31]: > 100 µM (inactive)
- GI50 [32]: > 100 µM (inactive)
- GI50 [33]: > 100 µM (inactive)
- GI50 [55]: > 100 µM (inactive)
- GI50 [35]: 1.05 µM (active)
- GI50 [36]: > 100 µM (inactive)
- GI50 [37]: > 100 µM (inactive)
- GI50 [38]: > 100 µM (inactive)
- GI50 [56]: 50.2 µM (inactive)
- GI50 [40]: 92 µM (inactive)
- GI50 [41]: 43.2 µM (inactive)
- GI50 [42]: > 100 µM (inactive)
- GI50 [43]: 97.1 µM (inactive)
- GI50 [44]: 48.1 µM (inactive)
- GI50 [46]: > 100 µM (inactive)
- GI50 [57]: 10.1 µM (inactive)
- GI50 [58]: > 100 µM (inactive)
- GI50 [59]: > 100 µM (inactive)
- GI50 [48]: > 100 µM (inactive)
- GI50 [49]: 38.5 µM (inactive)

Compound: COc1ccc(-c2cc(-c3ccco3)c(C#N)c(=S)n2C2OC(CO)C(O)C(O)C2O)cc1 (stereo not drawn)
- GI50 [1]: > 100 µM (inactive)
- GI50 [2]: > 100 µM (inactive)
- GI50 [3]: > 100 µM (inactive)
- GI50 [4]: > 100 µM (inactive)
- GI50 [5]: > 100 µM (inactive)
- GI50 [6]: > 100 µM (inactive)
- GI50 [50]: > 100 µM (inactive)
- GI50 [7]: > 100 µM (inactive)
- GI50 [8]: > 10 µM (inactive)
- GI50 [9]: > 100 µM (inactive)
- GI50 [51]: 25 µM (inactive)
- GI50 [10]: > 100 µM (inactive)
- GI50 [11]: > 100 µM
- GI50 [12]: > 100 µM (inactive)
- GI50 [14]: > 100 µM (inactive)
- GI50 [15]: > 100 µM (inactive)
- GI50 [16]: 92.3 µM (inactive)
- GI50 [17]: > 100 µM (inactive)
- GI50 [18]: > 100 µM (inactive)
- GI50 [19]: 50.4 µM (inactive)
- GI50 [20]: 52 µM (inactive)
- GI50 [21]: 58.6 µM (inactive)
- GI50 [53]: 36.2 µM (inactive)
- GI50 [22]: > 100 µM (inactive)
- GI50 [23]: > 100 µM (inactive)
- GI50 [24]: > 100 µM (inactive)
- GI50 [25]: > 100 µM (inactive)
- GI50 [26]: > 100 µM (inactive)
- GI50 [27]: > 100 µM (inactive)
- GI50 [54]: > 100 µM (inactive)
- GI50 [28]: > 100 µM (inactive)
- GI50 [29]: > 100 µM (inactive)
- GI50 [30]: 49.7 µM (inactive)
- GI50 [31]: > 100 µM (inactive)
- GI50 [32]: > 100 µM (inactive)
- GI50 [33]: > 100 µM (inactive)
- GI50 [55]: > 100 µM (inactive)
- GI50 [34]: > 100 µM (inactive)
- GI50 [35]: > 100 µM (inactive)
- GI50 [36]: > 100 µM (inactive)
- GI50 [37]: 80.4 µM (inactive)
- GI50 [38]: > 100 µM (inactive)
- GI50 [39]: > 100 µM (inactive)
- GI50 [56]: > 100 µM (inactive)
- GI50 [40]: 44.7 µM (inactive)
- GI50 [41]: 1.57 µM (inactive)
- GI50 [42]: > 100 µM (inactive)
- GI50 [43]: > 100 µM (inactive)
- GI50 [44]: > 100 µM (inactive)
- GI50 [46]: > 100 µM (inactive)
- GI50 [57]: > 100 µM (inactive)
- GI50 [58]: 82.8 µM (inactive)
- GI50 [59]: > 100 µM (inactive)
- GI50 [49]: > 100 µM (inactive)
